Data published in PubChem BioAssay (NCI).
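These data come from cells grown in 96-well plates and exposed to compound for 48 hours at five concentrations. GI50 marks 50% less growth. TGI is the concentration that stops growth completely.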

Legend:
Experiment in all cases: NCI-60 cell line screen, 48 h
786-0 renal = tested on: 786-0 renal
A498 renal = tested on: A498 renal
A549 NSCLC = tested on: A549 NSCLC
ACHN renal = tested on: ACHN renal
BT-549 breast = tested on: BT-549 breast
CAKI-1 renal = tested on: CAKI-1 renal
CCRF-CEM leukemia = tested on: CCRF-CEM leukemia
COLO 205 colon = tested on: COLO 205 colon
DU-145 prostate = tested on: DU-145 prostate
HCC-2998 colon = tested on: HCC-2998 colon
HCT-116 colon = tested on: HCT-116 colon
HCT-15 colon = tested on: HCT-15 colon
HL-60(TB) leukemia = tested on: HL-60(TB) leukemia
HOP-62 NSCLC = tested on: HOP-62 NSCLC
HOP-92 NSCLC = tested on: HOP-92 NSCLC
HS 578T breast = tested on: HS 578T breast
HT29 colon = tested on: HT29 colon
IGROV1 ovarian = tested on: IGROV1 ovarian
K-562 leukemia = tested on: K-562 leukemia
KM12 colon = tested on: KM12 colon
LOX IMVI melanoma = tested on: LOX IMVI melanoma
M14 melanoma = tested on: M14 melanoma
MALME-3M melanoma = tested on: MALME-3M melanoma
MCF7 breast = tested on: MCF7 breast
MDA-MB-231 breast = tested on: MDA-MB-231 breast
MDA-MB-435 = tested on: MDA-MB-435
MOLT-4 leukemia = tested on: MOLT-4 leukemia
NCI-H226 lung = tested on: NCI-H226 lung
NCI-H23 lung = tested on: NCI-H23 lung
NCI-H460 lung = tested on: NCI-H460 lung
NCI-H522 lung = tested on: NCI-H522 lung
NCI/ADR-RES ovarian = tested on: NCI/ADR-RES ovarian
OVCAR-3 ovarian = tested on: OVCAR-3 ovarian
OVCAR-4 ovarian = tested on: OVCAR-4 ovarian
OVCAR-5 ovarian = tested on: OVCAR-5 ovarian
OVCAR-8 ovarian = tested on: OVCAR-8 ovarian
PC-3 prostate = tested on: PC-3 prostate
RPMI-8226 leukemia = tested on: RPMI-8226 leukemia
RXF 393 renal = tested on: RXF 393 renal
SF-268 CNS = tested on: SF-268 CNS
SF-295 CNS = tested on: SF-295 CNS
SF-539 CNS = tested on: SF-539 CNS
SK-MEL-2 melanoma = tested on: SK-MEL-2 melanoma
SK-MEL-28 melanoma = tested on: SK-MEL-28 melanoma
SK-MEL-5 melanoma = tested on: SK-MEL-5 melanoma
SK-OV-3 ovarian = tested on: SK-OV-3 ovarian
SN12C renal = tested on: SN12C renal
SNB-19 CNS = tested on: SNB-19 CNS
SNB-75 CNS = tested on: SNB-75 CNS
SR leukemia = tested on: SR leukemia
SW-620 colon = tested on: SW-620 colon
T-47D breast = tested on: T-47D breast
TK-10 renal = tested on: TK-10 renal
U251 CNS = tested on: U251 CNS
UACC-257 melanoma = tested on: UACC-257 melanoma
UACC-62 melanoma = tested on: UACC-62 melanoma
UO-31 renal = tested on: UO-31 renal
EKVX NSCLC = tested on: EKVX NSCLC

`COC(=O)[C@H](Cc1cn(C)cn1)NC(=O)[C@H](Cc1c[nH]c2ccccc12)NC(=O)Nc1cc(C(F)(F)F)cc(C(F)(F)F)c1` showed a GI50 (786-0 renal) greater than 10 µM, a TGI (786-0 renal) greater than 10 µM and a GI50 (A498 renal) greater than 10 µM. The TGI (A498 renal) was greater than 10 µM, the GI50 (A549 NSCLC) was greater than 10 µM and the TGI (A549 NSCLC) was greater than 10 µM. It also gave a GI50 (ACHN renal) greater than 10 µM, a TGI (ACHN renal) greater than 10 µM and a GI50 (BT-549 breast) greater than 10 µM. The TGI (BT-549 breast) was greater than 10 µM, the GI50 (CAKI-1 renal) was greater than 10 µM and the TGI (CAKI-1 renal) was greater than 10 µM. For the same molecule, the GI50 (CCRF-CEM leukemia) was greater than 10 µM, the TGI (CCRF-CEM leukemia) was greater than 10 µM and the GI50 (COLO 205 colon) was greater than 10 µM. For the same molecule, the TGI (COLO 205 colon) was greater than 10 µM, the GI50 (DU-145 prostate) was greater than 10 µM and the TGI (DU-145 prostate) was greater than 10 µM. For the same molecule, the GI50 (HCC-2998 colon) was greater than 10 µM, the TGI (HCC-2998 colon) was greater than 10 µM and the GI50 (HCT-116 colon) was greater than 10 µM. The TGI (HCT-116 colon) was greater than 10 µM, the GI50 (HCT-15 colon) was greater than 10 µM and the TGI (HCT-15 colon) was greater than 10 µM. The GI50 (HL-60(TB) leukemia) was greater than 10 µM, the TGI (HL-60(TB) leukemia) was greater than 10 µM and the GI50 (HOP-62 NSCLC) was greater than 10 µM. For the same molecule, the TGI (HOP-62 NSCLC) was greater than 10 µM, the GI50 (HOP-92 NSCLC) was greater than 10 µM and the TGI (HOP-92 NSCLC) was greater than 10 µM. It also gave a GI50 (HS 578T breast) greater than 10 µM, a TGI (HS 578T breast) greater than 10 µM and a GI50 (HT29 colon) greater than 10 µM. For the same molecule, the TGI (HT29 colon) was greater than 10 µM, the GI50 (IGROV1 ovarian) was greater than 10 µM and the TGI (IGROV1 ovarian) was greater than 10 µM. The GI50 (K-562 leukemia) was greater than 10 µM, the TGI (K-562 leukemia) was greater than 10 µM and the GI50 (KM12 colon) was greater than 10 µM. It also gave a TGI (KM12 colon) greater than 10 µM, a GI50 (LOX IMVI melanoma) greater than 10 µM and a TGI (LOX IMVI melanoma) greater than 10 µM. It also gave a GI50 (M14 melanoma) greater than 10 µM, a TGI (M14 melanoma) greater than 10 µM and a GI50 (MALME-3M melanoma) greater than 10 µM. For the same molecule, the TGI (MALME-3M melanoma) was greater than 10 µM, the GI50 (MCF7 breast) was greater than 10 µM and the TGI (MCF7 breast) was greater than 10 µM. The GI50 (MDA-MB-231 breast) was greater than 10 µM, the TGI (MDA-MB-231 breast) was greater than 10 µM and the GI50 (MDA-MB-435) was greater than 10 µM. For the same molecule, the TGI (MDA-MB-435) was greater than 10 µM, the GI50 (MOLT-4 leukemia) was greater than 10 µM and the TGI (MOLT-4 leukemia) was greater than 10 µM. The GI50 (NCI-H226 lung) was greater than 10 µM, the TGI (NCI-H226 lung) was greater than 10 µM and the GI50 (NCI-H23 lung) was greater than 10 µM. For the same molecule, the TGI (NCI-H23 lung) was greater than 10 µM, the GI50 (NCI-H460 lung) was greater than 10 µM and the TGI (NCI-H460 lung) was greater than 10 µM. The GI50 (NCI-H522 lung) was greater than 10 µM, the TGI (NCI-H522 lung) was greater than 10 µM and the GI50 (NCI/ADR-RES ovarian) was greater than 10 µM. For the same molecule, the TGI (NCI/ADR-RES ovarian) was greater than 10 µM, the GI50 (OVCAR-3 ovarian) was greater than 10 µM and the TGI (OVCAR-3 ovarian) was greater than 10 µM. The GI50 (OVCAR-4 ovarian) was greater than 10 µM, the TGI (OVCAR-4 ovarian) was greater than 10 µM and the GI50 (OVCAR-5 ovarian) was greater than 10 µM. The TGI (OVCAR-5 ovarian) was greater than 10 µM, the GI50 (OVCAR-8 ovarian) was greater than 10 µM and the TGI (OVCAR-8 ovarian) was greater than 10 µM. It also gave a GI50 (PC-3 prostate) greater than 10 µM, a TGI (PC-3 prostate) greater than 10 µM and a GI50 (RPMI-8226 leukemia) greater than 10 µM. It also gave a TGI (RPMI-8226 leukemia) greater than 10 µM, a GI50 (RXF 393 renal) greater than 10 µM and a TGI (RXF 393 renal) greater than 10 µM. The GI50 (SF-268 CNS) was greater than 10 µM, the TGI (SF-268 CNS) was greater than 10 µM and the GI50 (SF-295 CNS) was greater than 10 µM. It also gave a TGI (SF-295 CNS) greater than 10 µM, a GI50 (SF-539 CNS) greater than 10 µM and a TGI (SF-539 CNS) greater than 10 µM. For the same molecule, the GI50 (SK-MEL-2 melanoma) was greater than 10 µM, the TGI (SK-MEL-2 melanoma) was greater than 10 µM and the GI50 (SK-MEL-28 melanoma) was greater than 10 µM. It also gave a TGI (SK-MEL-28 melanoma) greater than 10 µM, a GI50 (SK-MEL-5 melanoma) greater than 10 µM and a TGI (SK-MEL-5 melanoma) greater than 10 µM. For the same molecule, the GI50 (SK-OV-3 ovarian) was greater than 10 µM, the TGI (SK-OV-3 ovarian) was greater than 10 µM and the GI50 (SN12C renal) was greater than 10 µM. For the same molecule, the TGI (SN12C renal) was greater than 10 µM, the GI50 (SNB-19 CNS) was greater than 10 µM and the TGI (SNB-19 CNS) was greater than 10 µM. For the same molecule, the GI50 (SNB-75 CNS) was greater than 10 µM, the TGI (SNB-75 CNS) was greater than 10 µM and the GI50 (SR leukemia) was greater than 10 µM. It also gave a TGI (SR leukemia) greater than 10 µM, a GI50 (SW-620 colon) greater than 10 µM and a TGI (SW-620 colon) greater than 10 µM. The GI50 (T-47D breast) was greater than 10 µM, the TGI (T-47D breast) was greater than 10 µM and the GI50 (TK-10 renal) was greater than 10 µM. It also gave a TGI (TK-10 renal) greater than 10 µM, a GI50 (U251 CNS) greater than 10 µM and a TGI (U251 CNS) greater than 10 µM. It also gave a GI50 (UACC-257 melanoma) greater than 10 µM, a TGI (UACC-257 melanoma) greater than 10 µM and a GI50 (UACC-62 melanoma) greater than 10 µM. For the same molecule, the TGI (UACC-62 melanoma) was greater than 10 µM, the GI50 (UO-31 renal) was greater than 10 µM and the TGI (UO-31 renal) was greater than 10 µM.

With `COc1cccc(-c2cc(=O)c3c(C)cc(C)nc3[nH]2)c1` the TGI (786-0 renal) was greater than 100 µM, the TGI (A498 renal) was 10.8 µM and the TGI (A549 NSCLC) was greater than 100 µM. It also gave a TGI (ACHN renal) greater than 100 µM, a TGI (BT-549 breast) greater than 100 µM and a TGI (CCRF-CEM leukemia) of 2.87 µM. For the same molecule, the TGI (COLO 205 colon) was 0.637 µM, the TGI (DU-145 prostate) was greater than 72.1 µM and the TGI (EKVX NSCLC) was greater than 100 µM. It also gave a TGI (HCC-2998 colon) of 6.19 µM, a TGI (HCT-116 colon) greater than 59.9 µM and a TGI (HCT-15 colon) greater than 45.5 µM. It also gave a TGI (HL-60(TB) leukemia) of 0.505 µM, a TGI (HOP-62 NSCLC) greater than 65.1 µM and a TGI (HOP-92 NSCLC) greater than 85 µM. For the same molecule, the TGI (HS 578T breast) was greater than 100 µM, the TGI (IGROV1 ovarian) was greater than 67.4 µM and the TGI (K-562 leukemia) was 1.41 µM. For the same molecule, the TGI (KM12 colon) was 16.6 µM, the TGI (LOX IMVI melanoma) was greater than 100 µM and the TGI (M14 melanoma) was greater than 100 µM. The TGI (MALME-3M melanoma) was greater than 100 µM, the TGI (MCF7 breast) was 27.3 µM and the TGI (MDA-MB-231 breast) was greater than 100 µM. The TGI (MDA-MB-435) was 0.398 µM, the TGI (MOLT-4 leukemia) was greater than 71.9 µM and the TGI (NCI-H226 lung) was 9.09 µM. The TGI (NCI-H23 lung) was greater than 38.4 µM, the TGI (NCI-H460 lung) was greater than 42.1 µM and the TGI (NCI-H522 lung) was 11.5 µM. It also gave a TGI (NCI/ADR-RES ovarian) greater than 100 µM, a TGI (OVCAR-3 ovarian) of 0.652 µM and a TGI (OVCAR-4 ovarian) greater than 100 µM. For the same molecule, the TGI (OVCAR-5 ovarian) was greater than 100 µM, the TGI (OVCAR-8 ovarian) was greater than 100 µM and the TGI (PC-3 prostate) was greater than 100 µM. The TGI (RPMI-8226 leukemia) was 6.09 µM, the TGI (RXF 393 renal) was greater than 100 µM and the TGI (SF-268 CNS) was 36.2 µM. For the same molecule, the TGI (SF-295 CNS) was greater than 73.6 µM, the TGI (SK-MEL-2 melanoma) was 97.6 µM and the TGI (SK-MEL-28 melanoma) was greater than 100 µM. It also gave a TGI (SK-MEL-5 melanoma) of 14.8 µM, a TGI (SK-OV-3 ovarian) greater than 100 µM and a TGI (SN12C renal) greater than 100 µM. It also gave a TGI (SNB-19 CNS) greater than 100 µM, a TGI (SNB-75 CNS) of 0.671 µM and a TGI (SR leukemia) of 0.513 µM. For the same molecule, the TGI (SW-620 colon) was greater than 100 µM, the TGI (T-47D breast) was greater than 100 µM and the TGI (TK-10 renal) was greater than 100 µM. For the same molecule, the TGI (U251 CNS) was greater than 88.6 µM, the TGI (UACC-62 melanoma) was greater than 100 µM and the TGI (UO-31 renal) was greater than 100 µM.
